Legend:
[1] = test system: PC3/PSC27 xenograft tumors; assay: PC3/PSC27 xenograft tumor terminal volume in NOD/SCID mice; assay type: in vivo; conditions: for tumor volume, drug used alone: chemotherapeutic drug alone; for tumor volume, drug administered together with PCC1: chemotherapeutic drug combined with PCC1, end of 8th week
Source text: Every two weeks was a dosing cycle, and MIT (mitoxantrone) was intraperitoneally administered to the mice on the first day of the 3rd/5th/7th weeks. From the first day of the 5th week, the mice were intraperitoneally administrated with PCC1, once a week. After the 8-week course of treatment, the mice were dissected for pathological identification and expression analysis.
Chemotherapeutic drug MIT alone or together with anti-senescence drug PCC1 was used to administer mice, and after the 8th week, the tumor size of each group was compared and analyzed.
All experimental mouse experiments were carried out in strict accordance with the relevant regulations of the Institutional Animal Care and Use Committee (IACUC), Shanghai Institutes for Biological Sciences, Chinese Academy of Sciences. Immunodeficient mice (NOD-SCID mice, ICR) (body weight about 25 g) aged 6-8 weeks were used for animal experiments related to the present patent. Stromal cells PSC27 and epithelial cells PC3 were mixed at a predetermined ratio of 1:4, and each graft contained 1.25×10^6 cells for tissue remodeling. The xenograft tumors were implanted into mice by subcutaneous transplantation, and the animals were euthanized 8 weeks after the end of the transplantation surgery. Tumor volume was calculated according to the following formula: V=(π/6)×[…] (V, volume; l, length; w, width).
(§1) In a preclinical treatment trial, subcutaneously transplanted mice were fed with a standard experimental diet, after 2 weeks chemotherapy drugs mitoxantrone (MIT, dose: 0.2 mg/kg) and/or procyanidin C1 (PCC1) (500 μl, dose: 10 mg/kg) via intraperitoneal administration. The time points were: the former was administrated on the first day of the 3rd, 5th and 7th weeks, and the latter was administrated on the first day of the 5th and 7th weeks. A total of 3 cycles of MIT administration were carried out throughout the course of treatment, and each cycle lasted for 2 weeks. After the course of treatment, mouse tumors were harvested for volume measurement and histological analysis. Each mouse cumulatively received 0.6 mg/kg body weight of MIT and […] body weight of PCC1. In order to cause systemic expression of SASP factor induced by chemotherapy, MIT was administered to mice through […] according to the above steps and sequence, but the dose was reduced to 0.1 mg/kg body weight/each time (the cumulative dose of MIT received in the whole course of treatment was 0.3 mg/kg body weight) to reduce drug-related toxicity. The chemotherapy experiment ended at the end of the 8th week, and the mice were dissected immediately after sacrifice, and the xenograft tumors were collected and used for pathological system analysis.

senescent PSC27 cells = assay: Caspase 3/7 activity / drug-induced apoptosis in senescent cells; assay type: cell-based, human; conditions: QVD-OPh, 50 μM PCC1
Method: PSC27 cells gradually entered the senescent stage after being treated with BLEO for 12 hours under culture conditions. 50 μM PCC1 was added to the medium of senescent cells starting from day 7, NucLight Rapid Red reagent was used to label the cells, and caspase 3/7 reagent (IncuCyte) was used for apoptosis detection. Caspase 3/7 activity was detected every 4 hours (n=3).
Statistical differences are obtained by two-way ANOVA (Turkey' test).
PSC27 cells were plated in a 96-well dish, and the cells were induced to senescence under the treatment of 50 μg/mL BLEO. PCC1 and ABT263 were added at concentrations of 50 μM and 1.0 μM, respectively. Cell culture medium was supplemented with Incucyte Nuclight fast Red Reagent (Essen Bioscience) and Incucyte C-3/7 Apoptosis Reagent (Essen Bioscience). Representative field of view was selected to take pictures.

PSC27 cells = assay: Bleomycin-induced senescence of PSC27 stromal cells (SA-β-Gal, BrdU, DDR foci staining); assay type: cell-based, human
Method: The primary normal human prostate stromal cell line PSC27 (obtained from Fred Hutchinson Cancer Research Center, USA) was cultured in an incubator at 37° C. and 5% CO2, and proliferated and passaged in PSCC complete culture medium.
To cause cell damage, 50 μg/mL bleomycin (BLEO) was added to the culture medium when PSC27 cells grew to 80% (abbreviated as […]). After 12 hours of drug treatment, the cells were simply washed 3 times with PBS, left in the culture medium for 7-10 days, and then the subsequent experiments were performed.
For immunofluorescent staining, target cells were preseeded on coverslips for at least 24 h after culture in dishes. After a brief wash, the cells were fixed with 4% paraformaldehyde in PBS for 8 min and blocked with 5% normal goat serum (NGS, Thermo Fisher) for 30 min. Mouse monoclonal antibody-anti-phospho-Histone H2A.X (Ser139) (clone JBW301, Millipore) and mouse monoclonal antibody-anti-BrdU (Cat# 347580, BD Biosciences), and secondary antibody Alexa Fluor® 488 (or 594)-Eurolink's F(ab')2 were sequentially added to the slides coated with the fixed cells. Nuclei were counterstained with 2 μg/m DAPI. The most representative image was selected from the three observation fields for data analysis and result display. FV1000 laser scanning confocal microscope (Olympus) was used to acquire confocal fluorescence images of cells.
Senescence-associated (3-galactosidase (SA-β-Gal) staining was performed following a previously reported procedure (Debacq-Chainiaux et al., 2009). Briefly, cells in culture dishes were washed with PBS and fixed at room temperature. Cells were fixed in 2% formaldehyde and 0.2% glutaraldehyde for 3 minutes. SA-β-Gal was used for staining with freshly prepared staining solution overnight at 37° C. Images were taken on the next day and the percentage of positive cells per unit area was calculated.

[2] = test system: senescent cells in tumor tissue; assay: SA-β-Gal staining of tumor tissue in PC3/PSC27 tumor-bearing mice; assay type: in vivo; conditions: MIT alone
Method: Representative pictures after SA-β-Gal staining. Scale bar, 100 μm.
A P>0.05; **, P<0.01; ***, P<0.001.
as §1, with “The chemotherapy experiment ended at the end of the 8th week, and the mice were dissected immediately after sacrifice, and the xenograft tumors were collected and used for pathological system analysis.” left out

SASP factors = assay: LCM and qRT-PCR of SASP factors in mouse lesions; assay type: in vivo, mice; conditions: MIT, mainly in stromal cells
Method: The stromal cells and cancer cells were specifically separated by LCM technology, total RNA was prepared and used for SASP expression detection. A P>0.05; *, P<0.05; **, P<0.01; ***, P<0.001.
as §1, with “The chemotherapy experiment ended at the end of the 8th week, and the mice were dissected immediately after sacrifice, and the xenograft tumors were collected and used for pathological system analysis.” left out

[3] = test system: cancer cells in the lesion; assay: DNA damage and apoptosis in tumor lesions (LCM, caspase 3 cleavage IHC); assay type: in vivo, mice; conditions: single agent vs placebo, 7 days after first PCC1 administration
Source text: The signals of Caspase 3 cleaved […] in the lesion of each group of mice were in sharp contrast. Scale bar, 200 μm.
To investigate mechanisms directly supporting this senescence-associated pattern with expression and reversal of SASP in MIT-administered mice, we dissected tumors in animals treated with both drugs 7 days after the first PCC1 administration, and the time point of 7 days after administration was selected mainly because drug-resistant clones had not yet formed in cancer cells in the lesion at this time. […] As supporting evidence, when PCC1 was applied during treatment, caspase 3 cleavage activity was increased, which was a typical hallmark of apoptosis (FIG. 29).

HUVECs = conditions: cited from earlier work
[4] = test system: senescent human preadipocytes; conditions: cited from earlier work
[5] = test system: IMR90 fetal lung fibroblast-like cell lines; conditions: culture-adapted; cited from earlier work
[6] = test system: senescent primary human lung fibroblasts; conditions: cited from earlier work

## CC[C@]1(O)C[C@H]2CN(CCc3c([nH]c4ccccc34)[C@@](C(=O)OC)(c3cc4c(cc3OC)N(C=O)[C@H]3[C@@](O)(C(=O)OC)[C@H](OC(C)=O)[C@]5(CC)C=CCN6CC[C@]43[C@@H]65)C2)C1 [VIN, vincristine]
[1]; end of 8th week
  tumor volume, drug used alone: could reduce the tumor volume
[1]
  tumor volume, drug administered together with PCC1: no further tumor shrinkage

## CC(=O)O[C@@]12CO[C@@H]1C[C@H](O)[C@@]1(C)C(=O)[C@H](O)C3=C(C)[C@@H](OC(=O)[C@H](O)[C@@H](NC(=O)OC(C)(C)C)c4ccccc4)C[C@@](O)([C@@H](OC(=O)c4ccccc4)[C@H]21)C3(C)C [DOC, docetaxel]
[1]; end of 8th week
  tumor volume, drug used alone: could reduce the tumor volume
[1]
  tumor volume, drug administered together with PCC1: no further tumor shrinkage

## COc1cccc2c1C(=O)c1c(O)c3c(c(O)c1C2=O)C[C@@](O)(C(=O)CO)C[C@@H]3O[C@H]1C[C@H](N)[C@H](O)[C@H](C)O1 [DOX, doxorubicin]
[1]
  tumor volume, drug administered together with PCC1: could roughly repeat the significant effect

## CC(C)[C@H](NC(=O)c1ccc2ccccc2n1)C(=O)N[C@@H](CC(=O)O)C(=O)COc1c(F)cccc1F [QVD, reference compound]
Senescent PSC27 cells
  effect of pan-caspase inhibitor on senolytic activity of PCC1: could prevent the killing of senescent cells by PCC1

## bleomycin
PSC27 cells; PSC27, 50 μg/mL BLEO 12 h, 7-10 days later, vs CTRL
  positive rate of SA-β-Gal staining: significant increase
PSC27 cells; PSC27, BLEO treated vs CTRL
  BrdU incorporation rate: greatly reduced
  DNA damage repair foci (DDR foci): significantly increased

## O=C1c2c(O)ccc(O)c2C(=O)c2c(NCCNCCO)ccc(NCCNCCO)c21 [MIT, mitoxantrone, reference compound]
[1]; single agent, i.p., end of 8th week
  reduction in tumor size compared to placebo: 44.0%
[2]
  senescent cells in tumor tissue: induced the appearance of a large number of senescent cells
SASP factors
  expression of SASP factors (IL6, CXCL8, SPINK1, WNT16B, GM-CSF, MMP3, IL1α) and p16INK4A in lesions: significantly elevated
[3]
  degree of DNA damage and apoptosis: significant increase

## CC1(C)CCC(c2ccc(Cl)cc2)=C(CN2CCN(c3ccc(C(=O)NS(=O)(=O)c4ccc(N[C@H](CCN5CCOCC5)CSc5ccccc5)c(S(=O)(=O)C(F)(F)F)c4)cc3)CC2)C1 [Navitoclax]
HUVECs
  ability to target senescent cells: able to target
[4]
  ability to target senescent cells: not
[5]
  ability to target senescent cells: can target and kill senescent cells
[6]
  ability to target senescent cells: less effective
